ChEMBL document CHEMBL3351770, “Synthesis, antioxidant and cytoprotective evaluation of potential antiatherogenic phenolic hydrazones. A structure-activity relationship insight” (Bioorg Med Chem, 2014)

Key:
[1] = Antioxidant activity assessed as reduction in mouse CRL2181 cells-mediated human LDL oxidation by measuring TBARS level at 1 uM after 18 hrs; assay type: physicochemical, cell-based; settings: read-out: Activity
[2] = Cytoprotection in mouse CRL2181 cells assessed as reduction in UV-oxidized LDL-induced cytotoxicity by measuring cell viability at 1 uM after 24 hrs by MTT assay relative to untreated control; assay type: functional
[3] = Antioxidant activity assessed as DPPH radical scavenging activity by UV-Visible spectrophotometry; assay type: physicochemical
[4] = Antioxidant activity assessed as reduction in mouse CRL2181 cells-mediated human LDL oxidation by measuring TBARS level at 10 uM after 18 hrs; assay type: physicochemical, cell-based; design: scale not given: the % may be the effect or the level left
[5] = Cytoprotection in mouse CRL2181 cells assessed as reduction in UV-oxidized LDL-induced cytotoxicity by measuring cell viability at 10 uM after 24 hrs by MTT assay relative to untreated control; assay type: functional
[6] = Antioxidant activity assessed as superoxide anion radical scavenging activity at 10 uM by PMS-NADH-NBT system based spectrophotometry; assay type: physicochemical

Row | Compound | IC50 [3] | Activity [4] | Activity [6] | inhibition at 1 µM [1] | Activity [2] | Activity [5]
1 | COc1cc(/C=N/Nc2nncc3ccccc23)cc(OC)c1O | 28 µM | 4% |  | 38% | 46% | 66%
2 | COc1cc(/C=N/NC(=O)OCc2ccccc2)cc(OC)c1O | 60.5 µM | 3% |  | 38% | 45% | 69%
3 | COc1cc(/C=N/Nc2nc3ccccc3s2)cc(OC)c1O |  | 3% | 35% | 36% | 39% | 55%
4 | COc1cc(/C=N/Nc2nc3ccccc3s2)ccc1O |  | 7% |  | 65% | 44% | 61%
5 | COc1cc(/C=N/NC(=O)c2ccncc2)cc(OC)c1OC | > 1000 µM | 94% |  | 95% | 4% | 4%
6 | COc1cc(/C=N/Nc2nncc3ccccc23)cc(OC)c1OC.Cl | 40.2 µM | 93% |  | 96% | 6% | 5%
7 | COc1cc(/C=N/Nc2nncc3ccccc23)cc(O)c1O.Cl |  | 3% | 36.7% | 27% | 69% | 97%
8 | COc1cc(/C=N/NC(=O)OCc2ccccc2)cc(OC)c1OC | > 1000 µM | 100% |  | 95% | 5% | 4%
9 | COc1cc(/C=N/NC(=O)OCc2ccccc2)cc(O)c1O | 21.3 µM | 2% | 41.4% | 17% | 34% | 57%
10 | COc1cc(/C=N/NC(=O)OCc2ccccc2)ccc1O | 39.7 µM | 36% |  | 75% | 73% | 73%
11 | O=C(N/N=C/c1ccccc1O)OCc1ccccc1 | > 1000 µM | 104% |  | 106% | 24% | 34%
12 | COc1cc(/C=N/N(C)C(=O)OCc2ccccc2)cc(OC)c1O.Cl | 119 µM | 5% |  | 10% | 55% | 64%
13 | COc1cc(/C=N/N(C)C(=O)OCc2ccccc2)cc(OC)c1OC.Cl | > 7.1 µM | 90% |  | 98% | 6% | 6%
14 | COc1cc(/C=N/N(C)C(=O)OCc2ccccc2)ccc1O.Cl | 26.2 µM | 5% |  | 58% | 41% | 71%
15 | COc1cc(/C=N/Nc2nc3ccccc3s2)cc(OC)c1OC | 43.1 µM | 14% | 34% | 100% | 4% | 57%
16 | Oc1ccc(/C=N/Nc2nc3ccccc3s2)cc1O |  | 7% | 41.7% | 44% | 33% | 57%
17 | COc1cc(/C=N/N(C)c2nc3ccccc3s2)cc(OC)c1O |  | 3% | 43.3% | 5% | 107% | 110%
18 | COc1cc(/C=N/N(C)c2nc3ccccc3s2)cc(OC)c1OC | > 1000 µM | 82% |  | 84% | 7% | 7%
19 | COc1cc(/C=N/N(C)c2nc3ccccc3s2)ccc1O | 26.6 µM | 9% |  | 20% | 96% | 96%
20 | Cc1c(C)c2c(c(C)c1O)CC[C@@](C)(CCC[C@H](C)CCC[C@H](C)CCCC(C)C)O2 [ALPHA-TOCOPHEROL] |  | 55% |  | 78% |  | 47%
21 | O=C(/C=C/c1ccc(O)c(O)c1)O[C@@H]1C[C@](O)(C(=O)O)C[C@@H](O)[C@H]1O [CHLOROGENIC ACID] |  |  | 35.5% |  |  | 
22 | COc1cc(/C=N/NC(=O)c2ccncc2)ccc1O [FTIVAZIDE] | 86 µM | 95% |  | 90% | 36% | 63%
23 | O=C(N/N=C/c1ccccc1O)c1ccncc1 [SALINAZID] | > 1000 µM | 31% |  | 75% | 20% | 24%
24 | Cc1c(C)c2c(c(C)c1O)CCC(C)(C(=O)O)O2 (stereo unspecified) [TROLOX] | 20.1 µM | 33% | 22.2% | 69% | 50% | 76%

More lines, in order of falling IC50 [3], values ahead:

Row | IC50 [3] | Activity [4] | Activity [6] | Compound | inhibition at 1 µM [1] | Activity [2] | Activity [5]
25 | 19.9 µM | 4% |  | COc1cc(/C=N/Nc2nncc3ccccc23)ccc1O.Cl | 46% | 24% | 100%
26 | 18.4 µM | 8% |  | COc1cc(/C=N/NC(=O)c2ccncc2)cc(O)c1O | 59% | 41% | 80%
27 | 17 µM | 7% |  | COc1cc(/C=N/NC(=O)c2ccncc2)cc(OC)c1O | 48% | 34% | 65%
28 | 15.3 µM | 82% |  | COc1cc(/C=N/NC(=O)c2ccncc2)c(O)cc1O | 87% | 18% | 20%
29 | 13.5 µM | 6% |  | COc1cc(/C=N/NC(=O)OCc2ccccc2)c(O)cc1O | 74% | 43% | 79%
30 | 13.1 µM | 5% |  | O=C1CSC(=S)N1/N=C/c1ccccc1O | 79% | 26% | 87%
31 | 12.9 µM | 5% |  | COc1cc(/C=N/N2C(=O)CSC2=S)ccc1O | 66% | 34% | 72%
32 | 11.8 µM | 5% |  | COc1cc(/C=N/N2C(=O)CSC2=S)cc(OC)c1O | 59% | 53% | 85%
33 | 7.3 µM | 6% |  | O=C(N/N=C/c1ccc(O)c(O)c1)OCc1ccccc1 | 27% | 48% | 84%
34 | 6.8 µM | 7% |  | COc1cc(/C=N/Nc2nc3ccccc3s2)cc(O)c1O | 56% | 38% | 54%
35 | 6.7 µM | 3% |  | Cl.Oc1ccc(/C=N/Nc2nncc3ccccc23)cc1O | 51% | 34% | 72%
36 | 6.1 µM | 4% |  | O=C(N/N=C/c1ccc(O)c(O)c1)c1ccncc1 | 19% | 84% | 101%
